One experiment relates to HT29 cells. The experiment in a line: cells. The experiment is classed as cell-based, human. To be noted: Homo sapiens, HT-29; colon cancer; MTT, 48 h, 37 °C; DMEM + 10% FBS; 2,500 cells/well; absorbance 570 nm; n = 3 biologically independent. Here is the method:
(§1) An MTT (2-(4,5-dimethylthiazol-2-yl)−2,5-diphenyltetrazolium bromide) assay was used to determine the cytotoxicity of lapcin towards diverse cancer cell lines. Lapcin was dissolved in DMSO to make a 3.2 mg/mL working solution. For each cancer line detailed in Supplementary Table 5, cells at 80-90% confluency were counted and seeded in 96-well, flat bottom microplates and incubated at 37 °C with a 5% CO2 atmosphere. Outer wells were unused to avoid edge effects. After adhering for 24 h, the medium was sterilely aspirated and replaced with 100 µL of fresh medium containing lapcin or a control compound serially diluted at concentrations ranging from 8,000 to 0.00382 ng/mL. After 48 h (37 °C, 5% CO2), the medium was carefully removed and 110 µL of freshly prepared MTT solution (10 µL of 5 mg/mL MTT in PBS (pH 7.4) premixed with 100 µL of complete medium) was added to each well. After 3 h at 37 °C with 5% CO2, 100 µL of solubilization solution (40% DMF, 16% SDS and 2% acetic acid in H2O) was added to each well and precipitated formazan crystals were allowed to dissolve for 4 h. The absorbance of each well was then measured at 570 nm using a Tecan microplate reader.

The test system of the next experiment is NCI-H226 cells. Nature of the experiment: cells. The experiment is classed as cell-based, human. To be noted: Homo sapiens, NCI-H226; lung cancer; MTT, 48 h, 37 °C; RPMI-1640 + 10% FBS; 10,000 cells/well; absorbance 570 nm; n = 3 biologically independent. The protocol: as §1
The next experiment relates to HCT116 cells. The experiment in a line: cells. The experiment is classed as cell-based, human. To be noted: Homo sapiens, HCT-116; colon cancer; MTT, 48 h, 37 °C; DMEM + 10% FBS; 10,000 cells/well; absorbance 570 nm; n = 3 biologically independent. The protocol: as §1
Another experiment deals with HCC1806 cells. The experiment in a line: cells. Type of experiment: cell-based, human. To be noted: Homo sapiens, HCC1806; breast cancer; MTT, 48 h, 37 °C; RPMI-1640 + 10% FBS; 2,500 cells/well; absorbance 570 nm; n = 3 biologically independent. The protocol:
as §1

The test system of a further experiment is A549 cells. The experiment in a line: cells. To be noted: Homo sapiens, A549; lung cancer; MTT, 48 h, 37 °C; DMEM + 10% FBS + NEAA; 2,500 cells/well; absorbance 570 nm; n = 3 biologically independent. Type of experiment: cell-based, human. The protocol:
as §1

A further experiment has as its system HEK293 cells. The experiment in a line: cells. To be noted: Homo sapiens, HEK293; normal cell; MTT, 48 h, 37 °C; DMEM + 10% FBS; 5, 000 cells/well; absorbance 570 nm; n = 3 biologically independent. Type of experiment: cell-based, human. Here is the method:
as §1

The test system of another experiment is Hela (Cervical) cells. Nature of the experiment: cells. The experiment is classed as cell-based, human. To be noted: Homo sapiens, HeLa; cervical cancer; MTT, 48 h, 37 °C; DMEM + 10% FBS; 2,500 cells/well; absorbance 570 nm; n = 3 biologically independent. Here is the method:
as §1

The next experiment relates to NCI-H1299 cells. Nature of the experiment: cells. The experiment is classed as cell-based, human. To be noted: Homo sapiens, NCI-H1299; lung cancer; MTT, 48 h, 37 °C; RPMI-1640 + 10% FBS; 2,500 cells/well; absorbance 570 nm; n = 3 biologically independent. Here is the method:
as §1

For a further experiment, the system named is SW480 cells. The experiment in a line: cells. The experiment is classed as cell-based, human. To be noted: Homo sapiens, SW480; colon cancer; MTT, 48 h, 37 °C; DMEM + 10% FBS; 10,000 cells/well; absorbance 570 nm; n = 3 biologically independent. The protocol: as §1
The next experiment relates to MCF 7 cells. Nature of the experiment: cells. Type of experiment: cell-based, human. To be noted: Homo sapiens, MCF7; breast cancer; MTT, 48 h, 37 °C; DMEM + 10% FBS; 8,000 cells/well; absorbance 570 nm; n = 3 biologically independent. Here is the method:
as §1

Another experiment relates to U2OS (Bone) cells. The experiment in a line: cells. To be noted: Homo sapiens, U2OS; bone cancer; MTT, 48 h, 37 °C; DMEM + 10% FBS + NEAA; 2,500 cells/well; absorbance 570 nm; n = 3 biologically independent. Type of experiment: cell-based, human. The protocol: as §1
The subject of the next experiment is bacterial DNA gyrase. To be noted: ref [9],[25]; cited from earlier work.
Another experiment relates to Colo205 cells. Nature of the experiment: cells. Type of experiment: cell-based, human. To be noted: Homo sapiens, COLO 205; colon cancer; MTT, 48 h, 37 °C; RPMI-1640 + 10% FBS; 2,500 cells/well; absorbance 570 nm; n = 3 biologically independent. Here is the method:
as §1

Bounds are passed on as bounds.

Regarding `COc1cc([C@@H]2c3cc4c(cc3[C@@H](O[C@@H]3O[C@@H]5CO[C@@H](C)O[C@H]5[C@H](O)[C@H]3O)[C@H]3COC(=O)[C@H]23)OCO4)cc(OC)c1O` [Etoposide], the half-inhibitory concentration (IC50) with HT29 cells is 9610 nM; in the experiment with NCI-H226 cells, 217 nM; with HCT116 cells it was greater than 54400 nM; with HCC1806 cells, 3330 nM; in the experiment on A549 cells, 79.9 nM; in the experiment on HEK293 cells, 729 nM. For the same compound, the IC50 came out at 1510 nM in the experiment on Hela (Cervical) cells; 716 nM with NCI-H1299 cells; 26900 nM in the experiment with SW480 cells; 333 nM in the experiment with MCF 7 cells; 1840 nM in the experiment with U2OS (Bone) cells.

Take albicidin: the “inhibition of bacterial DNA gyrase” value with bacterial DNA gyrase is reported as “inhibit the bacterial DNA gyrase”.

`CC[C@@]1(O)C(=O)OCc2c1cc1n(c2=O)Cc2cc3ccccc3nc2-1` [Camptothecin]: the half-maximal inhibitory concentration (IC50) with Colo205 cells was 95.7 nM; in the experiment with HT29 cells it was 22.3 nM; with NCI-H226 cells, 28.5 nM; in the experiment on HCT116 cells it was 129 nM; in the experiment with HCC1806 cells, 19.6 nM; with A549 cells, 17.6 nM. For the same compound, the IC50 in the experiment with HEK293 cells is 19.2 nM; in the experiment with Hela (Cervical) cells, 62.6 nM; in the experiment with NCI-H1299 cells, 15 nM; in the experiment on SW480 cells it was 284 nM; in the experiment on MCF 7 cells, greater than 29200 nM; in the experiment on U2OS (Bone) cells, 172 nM.

The term IC50 denotes the concentration that inhibits the measured activity by half.

The values are drawn from publication PMC8837603, “Lapcin, a potent dual topoisomerase I/II inhibitor discovered by soil metagenome guided total chemical synthesis” (Nature Communications, 2022).
